Measured values reported in ChEMBL document CHEMBL1154799, “Asymmetrically substituted cationic indole- and fluorene porphyrins inhibit tumor proliferation in small intestinal neuroendocrine tumors and medullary thyroid carcinomas” (Eur J Med Chem, 2010).
The source made the active and inactive calls. The calls are words filed in the database; no cut-off is given here.

Legend:
Nucleic Acid [1] = test: Binding affinity to oligonucleotide d(CGTACG)2 by DNA intercalation assay; format: nucleic-acid assay
MTC-SK [2] = test: Antiproliferative activity against human MTC-SK cells at 10 uM after 72 hrs by WST-1 assay; format: functional, cell-based
KRJ-I [3] = test: (§1) Cytotoxicity against human KRJ-I cells assessed as decrease in cell viability after 72 hrs by WST-1 assay; format: functional, cell-based
[4] = as §1; format: functional, cell-based
KRJ-I [5] = test: Cytotoxicity against human KRJ-I cells assessed as induction of protease activity at 10 uM after 72 hrs by luminescence based assay; format: functional, cell-based
KRJ-I [6] = test: (§2) Cytotoxicity against human KRJ-I cells assessed as decrease in cell viability at 10 uM after 72 hrs by WST-1 assay; format: functional
[7] = as §2; format: functional
[8] = Antiproliferative activity against human HF-SAR cells at 10 uM after 72 hrs by WST-1 assay; format: cell-based
[9] = (§3) Cytotoxicity against human MTC-SK cells assessed as decrease in cell viability at 10 uM after 72 hrs by WST-1 assay; format: functional
MTC-SK [10] = test: as §3; format: functional
[11] = (§4) Antiproliferative activity against human MTC-SK cells after 72 hrs by WST-1 assay; format: functional, cell-based
MTC-SK [12] = test: as §4; format: functional, cell-based
Nucleic Acid [13] = test: Binding affinity to calf thymus DNA assessed as change in melting temperature; format: nucleic-acid assay; conditions: Bos taurus
[14] = Cytotoxicity against human MTC-SK cells assessed as induction of protease activity at 10 uM after 72 hrs by luminescence based assay; format: functional
KRJ-I [15] = test: (§5) Antiproliferative activity against human KRJ-I cells after 72 hrs by WST-1 assay; format: functional, cell-based
[16] = as §5; format: functional, cell-based
KRJ-I [17] = test: Antiproliferative activity against human KRJ-I cells at 10 uM after 72 hrs by WST-1 assay; format: functional, cell-based
[18] = (§6) Cytotoxicity against human MTC-SK cells assessed as decrease in cell viability after 72 hrs by WST-1 assay; format: functional, cell-based
MTC-SK [19] = test: as §6; format: functional, cell-based
[20] = Cytotoxicity against human HF-SAR cells assessed as decrease in cell viability at 10 uM after 72 hrs by WST-1 assay; format: cell-based

| SMILES | Activity (Nucleic Acid [1]) | Activity (MTC-SK [2]) | Activity (KRJ-I [3]) | IC50 [4] [µM] | Activity (KRJ-I [5]) | Activity (KRJ-I [6]) | Activity [7] [%] | Activity [8] | Activity [9] [%] | Activity (MTC-SK [10]) | IC50 [11] [µM] | Activity (MTC-SK [12]) | Activity (Nucleic Acid [13]) | Activity [14] [%] | Activity (KRJ-I [15]) | IC50 [16] [µM] | Activity (KRJ-I [17]) | IC50 [18] [µM] | Activity (MTC-SK [19]) | Activity [20] |
| --- | --- | --- | --- | --- | --- | --- | --- | --- | --- | --- | --- | --- | --- | --- | --- | --- | --- | --- | --- | --- |
| C[n+]1ccc(-c2c3nc(c(-c4cc[n+](C)cc4)c4ccc([nH]4)c(-c4cc(-c5ccc6c(c5)C(C)(C)c5ccccc5-6)c[n+](C)c4)c4nc(c(-c5cc[n+](C)cc5)c5ccc2[nH]5)C=C4)C=C3)cc1 | Active |  |  |  |  |  |  |  |  |  |  |  |  |  |  |  |  |  |  |  |
| C[n+]1ccc(-c2c3nc(c(-c4cc(-c5ccc6c(c5)C(C)(C)c5ccccc5-6)c[n+](C)c4)c4ccc([nH]4)c(-c4cc[n+](C)cc4)c4nc(c(-c5cc(-c6ccc7c(c6)C(C)(C)c6ccccc6-7)c[n+](C)c5)c5ccc2[nH]5)C=C4)C=C3)cc1.[Cl-].[Cl-].[Cl-].[Cl-] | Active | Active | Dose-dependent effect | 22.7 | inactive | Active | 95 | Active | 91 | Active | 22.7 | Dose-dependent effect | Active | 46 | Dose-dependent effect | 22.7 | Active | 22.7 | Dose-dependent effect | Not Active |
| C[n+]1ccc(-c2c3nc(c(-c4cc[n+](C)cc4)c4ccc([nH]4)c(-c4cc[n+](C)cc4)c4nc(c(-c5ccc(-c6cn(S(=O)(=O)c7ccccc7)c7ccccc67)cc5)c5ccc2[nH]5)C=C4)C=C3)cc1.[Cl-].[Cl-].[Cl-] |  | Active | Dose-dependent effect | 10 | inactive | Active | 37 | Active | 74 | Active | 10 | Dose-dependent effect | Active | 64 | Dose-dependent effect | 10 | Active | 10 | Dose-dependent effect | Not Active |
